One data set deals with E. coli TolC(−). The data set can be described thus: TolC(−) MIC (NB). The format is cell-based. The following applies: Escherichia coli, read-out: TolC(−) MIC (μM)(NB).
Data set [1] can be described thus: Aqueous solubility, nephelometry. The following applies: water, kinetic from dmso stock.
Data set [2] is described as follows: Mammalian cell cytotoxicity.
Data set [3] is described as follows: Microsomal stability + NADPH. The following applies: mouse liver microsomes, 0.5 hr at 37° C.

≈ marks a conversion by molar mass, not a printed value.

As to `CC(C)(C)COc1ccc(C(=O)Nc2nnc(-c3ccc(F)cc3)o2)cc1` [compound 4284], the MIC with E. coli TolC(−) amounted to 70.7 µM (≈ 26.1 µg/mL). This compound registered a solubility in data set [1] of 3.12 µM (≈ 1.15 µg/mL).

For the compound `Cc1ccc(Oc2ccc(C(=O)Nc3nnc(-c4ccc(F)cc4)o3)cc2)cc1` [compound 4305], the MIC in the data set with E. coli TolC(−) worked out at 0.781 µM (≈ 0.304 µg/mL). The same compound came in with a CC50 in data set [2] of 32 µM. Further, the “Microsomal Stability + NADPH % degraded” value in data set [3] was less than 30%. In data set [1], this compound yielded a solubility of 3.13 µM (≈ 1.22 µg/mL).

With `Cc1cccc(Oc2ccc(C(=O)Nc3nnc(-c4ccc(F)cc4)o3)cc2)c1` [compound 4306], the MIC in the data set with E. coli TolC(−) is 0.984 µM (≈ 0.383 µg/mL). Moreover, the CC50 in data set [2] was greater than 100 µM. The “Microsomal Stability + NADPH % degraded” value in data set [3] is less than 30%. In data set [1], this compound registered a solubility of 6.25 µM (≈ 2.43 µg/mL).

With `Cc1ccccc1Oc1ccc(C(=O)Nc2nnc(-c3ccc(F)cc3)o2)cc1` [compound 4307], the MIC in the data set on E. coli TolC(−) came to 1.56 µM (≈ 0.608 µg/mL). In data set [2], this compound displayed a CC50 of 65 µM. For the same compound, the “Microsomal Stability + NADPH % degraded” value in data set [3] is given as less than 30%. Moreover, in data set [1], the solubility is 12.5 µM (≈ 4.87 µg/mL).

On to `COC(=O)C1=CCN(C(=O)Nc2nnc(-c3ccc(F)cc3)o2)CC1` [compound 4348], for which, in the data set on E. coli TolC(−), the MIC was 12.5 µM (≈ 4.33 µg/mL). For the same compound, in data set [2], the CC50 is greater than 100 µM. In data set [1], this compound showed a solubility of 25 µM (≈ 8.66 µg/mL).

Turning to `CC(Oc1ccc(C(=O)Nc2nnc(-c3ccc(F)cc3)o2)cc1)c1ccccc1` (stereo not drawn) [compound 4357], in the data set with E. coli TolC(−), the MIC worked out at 1.56 µM (≈ 0.63 µg/mL). It took 45 µM to reach half-maximal cytotoxicity in data set [2] (CC50). The compound also gave a solubility in data set [1] of 3.1 µM (≈ 1.25 µg/mL).

For `O=C(Nc1nnc(-c2ccc(F)cc2)o1)N1CCN(c2ncccn2)CC1` [compound 4465], the MIC with E. coli TolC(−) amounted to 6.25 µM (≈ 2.31 µg/mL). In addition, in data set [2], the CC50 was greater than 100 µM. The compound further showed a solubility in data set [1] of 12.5 µM (≈ 4.62 µg/mL).

For the compound `Cc1ccccc1-c1nnc(NC(=O)c2ccc(Oc3ccccc3)nc2)o1` [compound 4498], the MIC with E. coli TolC(−) stood at 2.21 µM (≈ 0.823 µg/mL). Besides, the CC50 in data set [2] is greater than 100 µM.

Turning to `O=C(Nc1nnc(-c2ccc(F)cc2)o1)N1CCC(C2COC2)CC1` [compound 4740], the MIC in the data set with E. coli TolC(−) stood at 100 µM (≈ 34.6 µg/mL).

For the compound `O=C(Nc1nnc(-c2ccc(F)cc2)o1)N1CCC(Nc2ccccc2)CC1` [compound 4741], in the data set with E. coli TolC(−), the MIC came out at 11.1 µM (≈ 4.23 µg/mL).

For `CC1CCCN(C(=O)Nc2nnc(-c3ccc(F)cc3)o2)C1` (stereo not drawn) [compound 4767], the MIC in the data set with E. coli TolC(−) came to 11.1 µM (≈ 3.38 µg/mL).

As for `CC1CC(C)CN(C(=O)Nc2nnc(-c3ccc(F)cc3)o2)C1` (stereo not drawn) [compound 4768], the MIC with E. coli TolC(−) stood at 6.25 µM (≈ 1.99 µg/mL).

For the compound `O=C(Nc1nnc(C2COc3ccccc3O2)o1)c1ccc(Oc2ccccc2)nc1` (stereo not drawn) [compound 4770], in the data set on E. coli TolC(−), the MIC turned out to be 4.42 µM (≈ 1.84 µg/mL).

With `O=C(Nc1nnc(-c2ccc(F)cc2)o1)N1CCCC(F)(F)CC1` [compound 4776], the MIC in the data set with E. coli TolC(−) is 12.5 µM (≈ 4.25 µg/mL).

`O=C(Nc1nnc(-c2ccc(F)cc2)o1)N1CCCc2ccccc2C1` [compound 4777]: in the data set with E. coli TolC(−), the MIC was found to be 17.7 µM (≈ 6.23 µg/mL).

For the compound `COC(=O)c1ccc(OC2CCN(C(=O)Nc3nnc(-c4ccc(F)cc4)o3)CC2)cc1` [compound 4778], the MIC with E. coli TolC(−) was determined as 19.8 µM (≈ 8.74 µg/mL).

Consider `COC(=O)c1ccc(CC2CCN(C(=O)Nc3nnc(-c4ccc(F)cc4)o3)CC2)cc1` [compound 4779], for which the MIC with E. coli TolC(−) came to 12.5 µM (≈ 5.48 µg/mL).

For `O=C(Nc1nnc(Cc2ccc(F)cc2)o1)c1ccc(Oc2ccccc2)nc1` [compound 4802], the MIC in the data set on E. coli TolC(−) amounted to 6.25 µM (≈ 2.44 µg/mL).

Consider `CC1=CCN(C(=O)Nc2nnc(C3CCCCC3)o2)CC1` [compound 4805], for which, in the data set with E. coli TolC(−), the minimal inhibitory concentration (MIC) came out at 25 µM (≈ 7.26 µg/mL).

In the case of `O=C(Nc1nnc(C2CCCCC2)o1)N1CC=C(C(F)(F)F)CC1` [compound 4806], in the data set with E. coli TolC(−), the MIC is 12.5 µM (≈ 4.3 µg/mL).

Take `COCC1=CCN(C(=O)Nc2nnc(-c3ccc(F)cc3)o2)CC1` [compound 4843]: the MIC with E. coli TolC(−) came out at 25 µM (≈ 8.31 µg/mL).

For `CC1(C)CCCN(C(=O)Nc2nnc(-c3ccc(F)cc3)o2)CC1` [compound 4922], the MIC in the data set on E. coli TolC(−) came out at 12.5 µM (≈ 4.15 µg/mL).

In the case of `O=C(Nc1nnc(C2CCCCC2)o1)c1ccc(OC2CCCCC2)nc1` [compound 4925], in the data set with E. coli TolC(−), the MIC came to 1.56 µM (≈ 0.578 µg/mL).

As for `O=C(Nc1nnc(C2COc3ccccc3O2)o1)c1ccc(OC2CCCCC2)nc1` (stereo not drawn) [compound 4926], the MIC in the data set on E. coli TolC(−) amounted to 1.56 µM (≈ 0.659 µg/mL).

As to `O=C(Nc1nnc(-c2ccc(F)cc2)o1)N1CCC(F)(F)C1` [compound 4930], the MIC with E. coli TolC(−) came out at 19.8 µM (≈ 6.18 µg/mL).

Take `O=C(Nc1nnc(-c2ccc(F)cc2)o1)N1CCC2(C1)CC2(F)F` (stereo not drawn) [compound 4931]: in the data set with E. coli TolC(−), the MIC amounted to 28.1 µM (≈ 9.49 µg/mL).

With `O=C(Nc1nnc(-c2ccc(F)cc2)o1)N1CC(C(F)F)C2(CC2)C1` (stereo not drawn) [compound 4932], the MIC in the data set on E. coli TolC(−) was 17.7 µM (≈ 6.23 µg/mL).

In the case of `CCC1CCN(C(=O)Nc2nnc(-c3ccc(F)cc3)o2)CC1` [compound 4933], in the data set with E. coli TolC(−), the MIC came out at 6.25 µM (≈ 1.99 µg/mL).

For `CCCC1CCN(C(=O)Nc2nnc(-c3ccc(F)cc3)o2)CC1` [compound 4934], the MIC in the data set on E. coli TolC(−) was found to be 6.25 µM (≈ 2.08 µg/mL).

With `O=C(Nc1nnc(-c2ccc(F)cc2)o1)N1CCC=CCC1` [compound 4935], the MIC in the data set on E. coli TolC(−) was 12.5 µM (≈ 3.78 µg/mL).

For `O=C(Nc1nnc(-c2ccc(F)cc2)o1)N1CCc2ccccc2CC1` [compound 4936], in the data set with E. coli TolC(−), the MIC was 6.25 µM (≈ 2.2 µg/mL).

As to `CC(C)(C)C1CCCN(C(=O)Nc2nnc(-c3ccc(F)cc3)o2)CC1` (stereo not drawn) [compound 4937], in the data set on E. coli TolC(−), the MIC amounted to 11.1 µM (≈ 4 µg/mL).

For `CC(C)(C)C1CCN(C(=O)Nc2nnc(-c3ccc(F)cc3)o2)CC1` [compound 4938], the minimal inhibitory concentration (MIC) in the data set on E. coli TolC(−) was found to be 4.96 µM (≈ 1.72 µg/mL).

Take `O=C(Nc1nnc(-c2ccc(F)cc2)o1)N1CCC2(CCCC2)CC1` [compound 4939]: the MIC in the data set on E. coli TolC(−) stood at 6.25 µM (≈ 2.15 µg/mL).

In the case of `O=C(Nc1nnc(-c2ccc(F)cc2)o1)N1CCc2sccc2C1` [compound 4940], the MIC in the data set on E. coli TolC(−) was found to be 3.13 µM (≈ 1.08 µg/mL).

As for `CCOC1CCN(C(=O)Nc2nnc(-c3ccc(F)cc3)o2)CC1` [compound 4993], the MIC in the data set on E. coli TolC(−) turned out to be 44.5 µM (≈ 14.9 µg/mL).

As to `CC(C)OC1CCN(C(=O)Nc2nnc(-c3ccc(F)cc3)o2)CC1` [compound 4994], the MIC with E. coli TolC(−) turned out to be 44.5 µM (≈ 15.5 µg/mL).

With `CC(C)(C)OC1CCN(C(=O)Nc2nnc(-c3ccc(F)cc3)o2)CC1` [compound 4995], the MIC with E. coli TolC(−) amounted to 25 µM (≈ 9.06 µg/mL).

With `O=C(Nc1nnc(-c2ccc3c(c2)CCC3)o1)N1CCC(Cl)=C(Cl)C1` [compound 5154], in the data set with E. coli TolC(−), the MIC is 1.75 µM (≈ 0.664 µg/mL).

Regarding `O=C(Nc1nnc(-c2ccc3c(c2)CCC3)o1)N1CC=C(C(F)(F)F)CC1` [compound 5155], the MIC with E. coli TolC(−) was found to be 1.97 µM (≈ 0.745 µg/mL).

With `O=C(Nc1nnc(-c2ccc(F)cc2)o1)N1CCC(c2ccccc2)CC1` [compound 5199], in the data set on E. coli TolC(−), the MIC amounted to 5.57 µM (≈ 2.04 µg/mL).

Take `C[C@@H]1CCCN(C(=O)Nc2nnc(-c3ccc(F)cc3)o2)C1` [compound 5200]: in the data set with E. coli TolC(−), the MIC was 12.5 µM (≈ 3.8 µg/mL).

Regarding `O=C(Nc1nnc(-c2ccc(F)cc2)o1)N1CCCC(O)C1` (stereo not drawn) [compound 5201], the MIC with E. coli TolC(−) was greater than 100 µM.

In the case of `Cc1cc(F)cc(C)c1-c1nnc(NC(=O)N2CCc3ccccc3C2)o1` [compound 5202], the MIC in the data set on E. coli TolC(−) turned out to be 7.02 µM (≈ 2.57 µg/mL).

As to `Cc1cc(F)cc(C)c1-c1nnc(NC(=O)N2CCC(Cl)=C(Cl)C2)o1` [compound 5203], the MIC with E. coli TolC(−) was found to be 0.781 µM (≈ 0.301 µg/mL).

For the compound `Cc1cc(F)cc(C)c1-c1nnc(NC(=O)N2CC=C(C(F)(F)F)CC2)o1` [compound 5204], in the data set on E. coli TolC(−), the MIC is 4.96 µM (≈ 1.91 µg/mL).

Regarding `CC(C)C1CCCN(C(=O)Nc2nnc(-c3ccc(F)cc3)o2)C1` (stereo not drawn) [compound 5212], the MIC in the data set with E. coli TolC(−) was 7.02 µM (≈ 2.33 µg/mL).

Take `Cc1ccccc1-c1nnc(NC(=O)N2CCc3ccccc3C2)o1` [compound 5214]: the MIC in the data set with E. coli TolC(−) was 7.02 µM (≈ 2.35 µg/mL).

Take `Cc1ccccc1-c1nnc(NC(=O)N2CCC(Cl)=C(Cl)C2)o1` [compound 5215]: the MIC with E. coli TolC(−) amounted to 1.56 µM (≈ 0.551 µg/mL).

In the case of `CC1=CCN(C(=O)Nc2nnc(-c3c(C)cc(F)cc3C)o2)CC1` [compound 5216], the MIC with E. coli TolC(−) worked out at 12.5 µM (≈ 4.13 µg/mL).

Take `O=C(Nc1nnc(-c2ccc(N3CCCC3)cc2)o1)N1CCc2ccccc2C1` [compound 5222]: the MIC with E. coli TolC(−) is 25 µM (≈ 9.74 µg/mL).

Consider `O=C(Nc1nnc(-c2ccc(N3CCCC3)cc2)o1)N1CC=C(C(F)(F)F)CC1` [compound 5223], for which the minimum inhibitory concentration (MIC) in the data set on E. coli TolC(−) turned out to be 11.1 µM (≈ 4.54 µg/mL).

The values above are taken from patent US11505533B2, “Metabolically stable N-acylaminooxadiazoles useful as antibacterial agents” (MICROBIOTIX, INC., priority 2017, dated 2022).
